Reference: publication PMC12948245, “Fluorinated Carnitine Derivatives as Tools to Visualise Carnitine Transport and Metabolism” (Advanced Science, 2025)

Key:
[1] = biological target: T1, OCTN2 (Homo sapiens, UniProt O76082); assay: inhibition of […]FMC uptake in H460 cells by co-incubation; format: cell-based; settings: HBSS, 37 °C, 60 min; inhibitor concentration of this test not given
T1 construct: gene SLC22A5; endogenous full-length transporter in intact H460 cells; identity supported by OCTN2 siRNA knockdown (siRNA L-007456-00-0005)
T1 sequence (O76082 1-557): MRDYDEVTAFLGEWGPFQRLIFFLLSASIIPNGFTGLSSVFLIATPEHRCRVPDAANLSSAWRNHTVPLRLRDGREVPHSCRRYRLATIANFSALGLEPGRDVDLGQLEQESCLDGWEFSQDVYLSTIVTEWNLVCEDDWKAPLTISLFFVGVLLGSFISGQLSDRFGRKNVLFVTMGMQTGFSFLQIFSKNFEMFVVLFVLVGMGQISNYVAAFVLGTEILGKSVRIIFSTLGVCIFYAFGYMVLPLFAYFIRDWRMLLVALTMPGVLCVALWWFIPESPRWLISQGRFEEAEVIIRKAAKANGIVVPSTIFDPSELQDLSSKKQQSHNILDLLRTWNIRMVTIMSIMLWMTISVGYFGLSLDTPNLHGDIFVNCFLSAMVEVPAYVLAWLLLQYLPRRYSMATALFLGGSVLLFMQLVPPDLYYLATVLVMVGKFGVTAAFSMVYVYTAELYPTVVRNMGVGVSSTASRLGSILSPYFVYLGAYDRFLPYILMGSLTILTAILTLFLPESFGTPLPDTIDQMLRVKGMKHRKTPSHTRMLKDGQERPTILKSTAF

[2] = biological target: T1, OCTN2; assay: competitive inhibition of […]FMC uptake in H460 cells, gamma counting; format: cell-based; settings: HBSS, 37 °C, 60 min; [18F]FMC as tracer; endogenous transporter; n = 3

| SMILES | % reduction of [18F]FMC uptake [1] | IC50 [2] |
| --- | --- | --- |
| C[N+](C)(C)NCCC(=O)[O-] [meldonium] | 78.1 ± 10.2% |  |
| C[N+](C)(C)C[C@H](O)CC(=O)O [ʟ-carnitine] |  | 4.8 ± 1.6 µM |
